Laboratory results taken from patent US8853418B2, “Cyclopentylpyrazoles as N-type calcium channel blockers” (Janssen Pharmaceutica NV, priority 2012, dated 2014).
Read-outs that look alike come from different tables or passages of the source.

Columns and labels:
[1] = target: N-type calcium channel (Homo sapiens, UniProt Q00975); assay: Automated Electrophysiology Assay (QPatch-HT whole-cell patch clamp; low- and high-frequency stimulation); assay type: cell-based
[2] = target: N-type calcium channel (α1B (Cav2.2), β3 and α2δ subunits) (Homo sapiens, UniProt Q00975); assay: Functional Assay: Antagonism of N-Type Calcium Channel (FDSS calcium mobilization, KCl depolarization); assay type: cell-based; conditions: for IC50: HEK cell line, 50 mM KCl depolarization, six-point concentration-response, read-out: FDSS IC50
In short: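 HEK cells stably co-expressing α1B (Cav2.2), β3 and α2δ were loaded with calcium dye, then given compound with fluorescence recorded for 5 min before 50 mM KCl depolarisation and 3 min more reading. IC50 came from six-point curves of maximal fluorescence, normalised to KCl maximum and buffer minimum.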

[3] = high-frequency stimulation (15th pulse), read-out: QPatch at High Frequency % Inhibition
[4] = low frequency, read-out: QPatch at Low Frequency % Inhibition

Sequence of N-type calcium channel (Q00975 whole entry): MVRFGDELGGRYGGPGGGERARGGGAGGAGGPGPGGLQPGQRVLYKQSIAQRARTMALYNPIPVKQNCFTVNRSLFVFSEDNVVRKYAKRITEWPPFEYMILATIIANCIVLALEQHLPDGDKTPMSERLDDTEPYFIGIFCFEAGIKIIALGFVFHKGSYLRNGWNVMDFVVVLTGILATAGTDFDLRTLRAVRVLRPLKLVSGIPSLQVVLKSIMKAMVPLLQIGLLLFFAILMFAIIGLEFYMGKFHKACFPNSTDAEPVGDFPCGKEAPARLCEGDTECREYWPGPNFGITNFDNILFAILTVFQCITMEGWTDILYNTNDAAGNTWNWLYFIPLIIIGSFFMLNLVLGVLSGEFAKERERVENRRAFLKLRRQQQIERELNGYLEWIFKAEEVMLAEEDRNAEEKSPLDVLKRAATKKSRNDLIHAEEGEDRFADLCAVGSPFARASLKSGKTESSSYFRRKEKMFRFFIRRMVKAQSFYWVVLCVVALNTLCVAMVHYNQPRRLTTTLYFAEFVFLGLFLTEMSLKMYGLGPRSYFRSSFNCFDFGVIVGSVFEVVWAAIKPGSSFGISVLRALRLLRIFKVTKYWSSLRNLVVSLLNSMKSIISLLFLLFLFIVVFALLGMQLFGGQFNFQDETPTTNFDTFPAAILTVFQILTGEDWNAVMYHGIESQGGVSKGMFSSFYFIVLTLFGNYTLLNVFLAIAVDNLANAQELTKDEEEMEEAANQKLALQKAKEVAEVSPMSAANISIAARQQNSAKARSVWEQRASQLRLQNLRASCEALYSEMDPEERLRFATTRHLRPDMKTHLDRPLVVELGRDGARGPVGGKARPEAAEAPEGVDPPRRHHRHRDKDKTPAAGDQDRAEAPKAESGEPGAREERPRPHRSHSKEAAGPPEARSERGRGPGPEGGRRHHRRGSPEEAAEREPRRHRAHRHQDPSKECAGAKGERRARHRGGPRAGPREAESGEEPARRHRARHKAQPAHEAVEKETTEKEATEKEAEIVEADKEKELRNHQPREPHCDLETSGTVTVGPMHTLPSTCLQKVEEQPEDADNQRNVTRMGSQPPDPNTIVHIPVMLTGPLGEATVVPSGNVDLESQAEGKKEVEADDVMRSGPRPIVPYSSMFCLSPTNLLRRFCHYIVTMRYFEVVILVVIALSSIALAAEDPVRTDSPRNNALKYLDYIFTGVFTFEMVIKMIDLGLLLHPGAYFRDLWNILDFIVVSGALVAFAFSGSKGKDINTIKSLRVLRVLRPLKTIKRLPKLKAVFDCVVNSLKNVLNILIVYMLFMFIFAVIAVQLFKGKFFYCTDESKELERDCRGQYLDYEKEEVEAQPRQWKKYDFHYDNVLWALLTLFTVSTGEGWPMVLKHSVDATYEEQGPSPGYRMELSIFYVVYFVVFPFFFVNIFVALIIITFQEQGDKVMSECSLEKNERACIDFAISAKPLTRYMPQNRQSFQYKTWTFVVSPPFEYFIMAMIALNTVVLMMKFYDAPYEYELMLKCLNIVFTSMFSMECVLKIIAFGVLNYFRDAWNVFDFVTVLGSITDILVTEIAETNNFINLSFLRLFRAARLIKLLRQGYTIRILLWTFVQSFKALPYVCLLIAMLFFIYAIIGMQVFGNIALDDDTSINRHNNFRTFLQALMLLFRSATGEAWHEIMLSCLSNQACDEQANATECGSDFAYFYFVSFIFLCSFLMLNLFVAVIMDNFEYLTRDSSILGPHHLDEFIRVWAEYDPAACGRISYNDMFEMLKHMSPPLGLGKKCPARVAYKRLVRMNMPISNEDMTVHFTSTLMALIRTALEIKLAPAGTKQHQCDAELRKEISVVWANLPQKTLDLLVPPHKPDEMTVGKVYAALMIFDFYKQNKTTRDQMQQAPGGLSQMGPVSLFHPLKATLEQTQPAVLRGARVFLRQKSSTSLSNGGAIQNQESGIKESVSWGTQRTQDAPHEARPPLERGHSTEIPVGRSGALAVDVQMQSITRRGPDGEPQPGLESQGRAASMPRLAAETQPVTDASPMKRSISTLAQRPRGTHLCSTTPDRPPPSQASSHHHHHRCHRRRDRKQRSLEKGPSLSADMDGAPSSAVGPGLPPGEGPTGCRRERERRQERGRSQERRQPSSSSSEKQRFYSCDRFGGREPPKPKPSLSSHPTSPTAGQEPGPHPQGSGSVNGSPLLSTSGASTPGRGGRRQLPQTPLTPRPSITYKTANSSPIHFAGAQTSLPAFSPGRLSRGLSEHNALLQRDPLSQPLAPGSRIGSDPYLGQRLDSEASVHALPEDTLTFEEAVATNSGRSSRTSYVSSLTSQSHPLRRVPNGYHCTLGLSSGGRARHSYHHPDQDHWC
Sequence of N-type calcium channel (P54284 whole entry partner): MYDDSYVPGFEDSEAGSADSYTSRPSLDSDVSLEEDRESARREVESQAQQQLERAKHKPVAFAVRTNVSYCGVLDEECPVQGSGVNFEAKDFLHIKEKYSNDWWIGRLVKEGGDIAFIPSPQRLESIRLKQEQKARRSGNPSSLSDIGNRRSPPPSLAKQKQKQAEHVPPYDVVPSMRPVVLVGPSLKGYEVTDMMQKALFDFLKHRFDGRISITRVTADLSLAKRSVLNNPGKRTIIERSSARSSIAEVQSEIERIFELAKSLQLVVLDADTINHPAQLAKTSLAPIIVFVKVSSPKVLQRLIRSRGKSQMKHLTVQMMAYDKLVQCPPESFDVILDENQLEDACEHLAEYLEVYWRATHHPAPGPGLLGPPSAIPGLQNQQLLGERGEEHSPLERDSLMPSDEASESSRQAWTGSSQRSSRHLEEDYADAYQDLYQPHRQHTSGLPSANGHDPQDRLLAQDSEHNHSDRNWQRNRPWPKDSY
Sequence of N-type calcium channel (P54289 25-946 partner limits assumed): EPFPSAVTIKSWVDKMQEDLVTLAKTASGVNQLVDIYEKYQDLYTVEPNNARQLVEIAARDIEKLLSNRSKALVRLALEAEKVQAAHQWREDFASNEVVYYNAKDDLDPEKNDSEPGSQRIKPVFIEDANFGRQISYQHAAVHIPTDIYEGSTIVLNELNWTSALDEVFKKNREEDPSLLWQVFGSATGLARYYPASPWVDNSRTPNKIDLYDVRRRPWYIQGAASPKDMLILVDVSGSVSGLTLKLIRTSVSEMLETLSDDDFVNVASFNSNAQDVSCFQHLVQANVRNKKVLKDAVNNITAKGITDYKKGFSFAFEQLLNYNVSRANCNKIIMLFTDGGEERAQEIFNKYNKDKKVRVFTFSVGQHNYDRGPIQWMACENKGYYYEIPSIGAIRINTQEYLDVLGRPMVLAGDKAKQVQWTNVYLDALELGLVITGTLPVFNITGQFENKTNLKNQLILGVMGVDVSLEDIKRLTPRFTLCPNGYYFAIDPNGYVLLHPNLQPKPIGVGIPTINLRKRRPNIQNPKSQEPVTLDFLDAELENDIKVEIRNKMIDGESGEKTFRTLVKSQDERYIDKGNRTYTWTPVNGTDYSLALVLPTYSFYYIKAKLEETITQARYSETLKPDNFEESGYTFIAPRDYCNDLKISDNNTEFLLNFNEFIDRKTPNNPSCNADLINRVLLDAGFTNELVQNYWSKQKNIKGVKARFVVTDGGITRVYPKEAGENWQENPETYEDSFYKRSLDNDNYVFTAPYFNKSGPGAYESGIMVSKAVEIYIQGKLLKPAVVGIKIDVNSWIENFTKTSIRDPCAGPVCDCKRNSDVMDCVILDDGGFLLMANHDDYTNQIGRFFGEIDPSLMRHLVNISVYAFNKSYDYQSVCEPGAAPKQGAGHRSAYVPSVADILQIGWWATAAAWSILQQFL
Sequence of N-type calcium channel (P54289 947-1103 partner limits assumed): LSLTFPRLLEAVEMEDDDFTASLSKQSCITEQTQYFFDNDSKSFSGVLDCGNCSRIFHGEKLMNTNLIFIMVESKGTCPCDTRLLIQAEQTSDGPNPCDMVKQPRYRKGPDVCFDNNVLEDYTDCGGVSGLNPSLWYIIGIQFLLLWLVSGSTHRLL
Sequence of N-type calcium channel (α1B (Cav2.2), β3 and α2δ subunits) (Q00975 whole entry): as the sequence (Q00975 whole entry) above
Sequence of N-type calcium channel (α1B (Cav2.2), β3 and α2δ subunits) (P54284 whole entry partner): as the sequence (P54284 whole entry partner) above
Sequence of N-type calcium channel (α1B (Cav2.2), β3 and α2δ subunits) (P54289 25-946 partner limits assumed): as the sequence (P54289 25-946 partner limits assumed) above
Sequence of N-type calcium channel (α1B (Cav2.2), β3 and α2δ subunits) (P54289 947-1103 partner limits assumed): as the sequence (P54289 947-1103 partner limits assumed) above

CCC(CC)C(=O)O[C@H]1Cc2nn(-c3ccccc3OC)c(-c3ccc(Cl)cc3)c2C1 [Compound 55, (5R)-3-(4-chlorophenyl)-2-(2-methoxyphenyl)-2,4,5,6-tetrahydrocyclopenta[c]pyrazol-5-yl 2-ethylbutanoate]
inhibition at 0.03 µM [1, 3]: 19% | inhibition at 0.1 µM [1, 3]: 29% | inhibition at 1 µM [1, 3]: 79% | inhibition at 0.03 µM [1, 4]: 15% | inhibition at 0.1 µM [1, 4]: 12% | inhibition at 1 µM [1, 4]: 57% | inhibition at 0.33 µM [2]: 95% | IC50 [2]: 11 nM

COc1ccc(-c2c3c(nn2-c2ccccc2OC)C[C@H](N(C)S(=O)(=O)N(C)C)C3)cn1 [Compound 56, N-[(5R)-2-(2-Methoxyphenyl)-3-(6-methoxypyridin-3-yl)-2,4,5,6-tetrahydrocyclopenta[c]pyrazol-5-yl]-N,N′,N′-trimethylsulfamide]
inhibition at 0.1 µM [1, 3]: 2% | inhibition at 1 µM [1, 3]: 47% | inhibition at 0.1 µM [1, 4]: -1% | inhibition at 1 µM [1, 4]: 32% | inhibition at 0.33 µM [2]: 93% | IC50 [2]: 13 nM

COc1ccccc1-n1nc2c(c1-c1ccc(OC(C)C)nc1)C[C@@H](N(C)S(=O)(=O)N(C)C)C2 [Compound 57, N-{(5R)-2-(2-Methoxyphenyl)-3-[6-(1-methylethoxy)pyridin-3-yl]-2,4,5,6-tetrahydrocyclopenta[c]pyrazol-5-yl}-N,N′,N′-trimethylsulfamide]
inhibition at 1 µM [1, 3]: 83% | inhibition at 1 µM [1, 4]: 75% | inhibition at 0.33 µM [2]: 99% | IC50 [2]: 18 nM

COc1ccccc1-n1nc2c(c1-c1ccc(Cl)cc1)CC(c1cccnc1)C2 (stereo not drawn) [Compound 63, 3-(4-chlorophenyl)-2-(2-methoxyphenyl)-5-pyridin-3-yl-2,4,5,6-tetrahydrocyclopenta[c]pyrazole]
inhibition at 1 µM [1, 3]: 62% | inhibition at 1 µM [1, 4]: 40% | inhibition at 0.33 µM [2]: 98% | IC50 [2]: 8.6 nM

COc1ccccc1-n1nc2c(c1-c1ccc(Cl)cc1)C[C@H](OC(C)C)C2 [Compound 67, (5S)-3-(4-chlorophenyl)-2-(2-methoxyphenyl)-5-(1-methylethoxy)-2,4,5,6-tetrahydrocyclopenta[c]pyrazole]
inhibition at 0.1 µM [1, 3]: 61% | inhibition at 0.1 µM [1, 4]: 48% | inhibition at 0.33 µM [2]: 100% | IC50 [2]: 5.7 nM

COc1ccccc1-n1nc2c(c1-c1ccc(Cl)cc1)CC(N1CCOCC1)C2 (stereo not drawn) [Compound 68, 3-(4-chlorophenyl)-2-(2-methoxyphenyl)-5-morpholin-4-yl-2,4,5,6-tetrahydrocyclopenta[c]pyrazole]
inhibition at 0.1 µM [1, 3]: 31% | inhibition at 0.1 µM [1, 4]: 33% | inhibition at 0.33 µM [2]: 95% | IC50 [2]: 16 nM

COc1ccccc1-n1nc2c(c1-c1ccc(Cl)cc1)C[C@H](O[Si](C)(C)C)C2 [Compound 69, (5S)-3-(4-chlorophenyl)-2-(2-methoxyphenyl)-5-[(trimethylsilyl)oxy]-2,4,5,6-tetrahydrocyclopenta[c]pyrazole]
inhibition at 0.1 µM [1, 3]: 26% | inhibition at 0.1 µM [1, 4]: 15% | inhibition at 0.33 µM [2]: 93% | IC50 [2]: 9.6 nM

CCC(CC)C(=O)O[C@@H]1Cc2nn(-c3ccccc3OC)c(-c3ccc(Cl)cc3)c2C1 [Compound 70, (5S)-3-(4-chlorophenyl)-2-(2-methoxyphenyl)-2,4,5,6-tetrahydrocyclopenta[c]pyrazol-5-yl 2-ethylbutanoate]
inhibition at 0.1 µM [1, 3]: 19% | inhibition at 0.33 µM [2]: 96% | IC50 [2]: 15 nM

COc1ccccc1-n1nc2c(c1-c1ccc(Cl)cc1)C[C@H](OC1CCCCO1)C2 (stereo partly drawn) [Compound 76, (5S)-3-(4-chlorophenyl)-2-(2-methoxyphenyl)-5-(tetrahydro-2H-pyran-2-yloxy)-2,4,5,6-tetrahydrocyclopenta[c]pyrazole]
inhibition at 0.1 µM [1, 3]: 42% | inhibition at 0.1 µM [1, 4]: 27% | inhibition at 0.33 µM [2]: 92% | IC50 [2]: 28 nM

COc1ccccc1-n1nc2c(c1-c1ccc(Cl)cc1)C[C@H](OC(=O)C1CCCCC1)C2 [Compound 78, (5S)-3-(4-chlorophenyl)-2-(2-methoxyphenyl)-2,4,5,6-tetrahydrocyclopenta[c]pyrazol-5-yl cyclohexanecarboxylate]
inhibition at 0.1 µM [1, 3]: 27% | inhibition at 0.1 µM [1, 4]: 15% | inhibition at 0.33 µM [2]: 78% | IC50 [2]: 93 nM

COc1ccccc1-n1nc2c(c1-c1ccc(Cl)cc1)C[C@H](OC(=O)C1CCCC1)C2 [Compound 79, (5S)-3-(4-chlorophenyl)-2-(2-methoxyphenyl)-2,4,5,6-tetrahydrocyclopenta[c]pyrazol-5-yl cyclopentanecarboxylate]
inhibition at 0.1 µM [1, 3]: 11% | inhibition at 0.1 µM [1, 4]: -7% | inhibition at 0.33 µM [2]: 82% | IC50 [2]: 75 nM

COc1ccccc1-n1nc2c(c1-c1ccc(Cl)cc1)C[C@H](OC(=O)C1CCC1)C2 [Compound 80, (5S)-3-(4-chlorophenyl)-2-(2-methoxyphenyl)-2,4,5,6-tetrahydrocyclopenta[c]pyrazol-5-yl cyclobutanecarboxylate]
inhibition at 0.1 µM [1, 3]: 22% | inhibition at 1 µM [1, 3]: 43% | inhibition at 0.1 µM [1, 4]: 7% | inhibition at 1 µM [1, 4]: 6% | inhibition at 0.33 µM [2]: 89% | IC50 [2]: 31 nM

COc1ccccc1-n1nc2c(c1-c1ccc(Cl)cc1)C[C@H](OC(=O)C(C)C)C2 [Compound 81, (5S)-3-(4-chlorophenyl)-2-(2-methoxyphenyl)-2,4,5,6-tetrahydrocyclopenta[c]pyrazol-5-yl 2-methylpropanoate]
inhibition at 0.1 µM [1, 3]: 12% | inhibition at 0.1 µM [1, 4]: -4% | inhibition at 0.33 µM [2]: 86% | IC50 [2]: 48 nM

COc1ccccc1-n1nc2c(c1-c1ccc(Cl)cc1)C[C@H](OCC(C)C)C2 [Compound 85, (5S)-3-(4-chlorophenyl)-2-(2-methoxyphenyl)-5-(2-methylpropoxy)-2,4,5,6-tetrahydrocyclopenta[c]pyrazole]
inhibition at 0.1 µM [1, 3]: 2% | inhibition at 0.1 µM [1, 4]: -5% | inhibition at 0.33 µM [2]: 94% | IC50 [2]: 23 nM

COc1ccccc1-n1nc2c(c1-c1ccc(Cl)cc1)C[C@H](OC1CCCCC1)C2 [Compound 88, (5S)-3-(4-chlorophenyl)-5-(cyclohexyloxy)-2-(2-methoxyphenyl)-2,4,5,6-tetrahydrocyclopenta[c]pyrazole]
inhibition at 0.1 µM [1, 3]: 33% | inhibition at 0.1 µM [1, 4]: 22% | inhibition at 0.33 µM [2]: 83% | IC50 [2]: 43 nM

COc1ccccc1-n1nc2c(c1-c1ccc(Cl)cc1)C[C@H](O[C@H]1C[C@@H]3CC[C@H]1C3)C2 [Compound 89, (5S)-5-[(1S,2S,4R)-bicyclo[2.2.1]hept-2-yloxy]-3-(4-chlorophenyl)-2-(2-methoxyphenyl)-2,4,5,6-tetrahydrocyclopenta[c]pyrazole]
inhibition at 0.1 µM [1, 3]: 26% | inhibition at 0.1 µM [1, 4]: 6% | inhibition at 0.33 µM [2]: 85% | IC50 [2]: 49 nM

COc1ccccc1-n1nc2c(c1-c1ccc(Cl)cc1)C[C@H](OC1CCCC1)C2 [Compound 90, (5S)-3-(4-chlorophenyl)-5-(cyclopentyloxy)-2-(2-methoxyphenyl)-2,4,5,6-tetrahydrocyclopenta[c]pyrazole]
inhibition at 0.1 µM [1, 3]: 21% | inhibition at 0.1 µM [1, 4]: 10% | inhibition at 0.33 µM [2]: 89% | IC50 [2]: 22 nM

COc1ccccc1-n1nc2c(c1-c1ccc(C#N)cc1)CC1(C2)OCC(C)(C)CO1 [Compound 91, 4-[2-(2-methoxyphenyl)-5′,5′-dimethyl-2,6-dihydro-4H-spiro[cyclopenta[c]pyrazole-5,2′-[1,3]dioxan]-3-yl]benzonitrile]
inhibition at 0.01 µM [1, 3]: 20% | inhibition at 0.1 µM [1, 3]: 39% | inhibition at 1 µM [1, 3]: 61% | inhibition at 0.01 µM [1, 4]: 19% | inhibition at 0.1 µM [1, 4]: 28% | inhibition at 1 µM [1, 4]: 40% | inhibition at 0.33 µM [2]: 89% | IC50 [2]: 19 nM

COc1ccccc1-n1nc2c(c1-c1ccc(N(C)C)cc1)CC1(C2)OCC(C)(C)CO1 [Compound 93, 4-[2-(2-methoxyphenyl)-5′,5′-dimethyl-2,6-dihydro-4H-spiro[cyclopenta[c]pyrazole-5,2′-[1,3]dioxan]-3-yl]-N,N-dimethylaniline]
inhibition at 0.1 µM [1, 3]: 30% | inhibition at 0.1 µM [1, 4]: 12% | inhibition at 0.33 µM [2]: 91% | IC50 [2]: 12 nM

COc1ccc(-c2c3c(nn2-c2ccccc2OC)CC2(C3)OCC(C)(C)CO2)cn1 [Compound 96, 2-(2-methoxyphenyl)-3-(6-methoxypyridin-3-yl)-5′,5′-dimethyl-2,6-dihydro-4H-spiro[cyclopenta[c]pyrazole-5,2′-[1,3]dioxane]]
inhibition at 0.1 µM [1, 3]: 20% | inhibition at 0.1 µM [1, 4]: -1% | inhibition at 0.33 µM [2]: 81% | IC50 [2]: 34 nM

COc1ccccc1-n1nc2c(c1-c1ccc(N(C)C)nc1)CC1(C2)OCC(C)(C)CO1 [Compound 97, 5-[2-(2-methoxyphenyl)-5′,5′-dimethyl-2,6-dihydro-4H-spiro[cyclopenta[c]pyrazole-5,2′-[1,3]dioxan]-3-yl]-N,N-dimethylpyridin-2-amine]
inhibition at 0.1 µM [1, 3]: 33% | inhibition at 0.1 µM [1, 4]: 27% | inhibition at 0.33 µM [2]: 88% | IC50 [2]: 29 nM

COc1ccccc1-n1nc2c(c1-c1ccc(Cl)cc1)CC1(C2)O[C@H](C)[C@@H](C)O1 [Compound 98, (4′R,5′R)-3-(4-chlorophenyl)-2-(2-methoxyphenyl)-4′,5′-dimethyl-2,6-dihydro-4H-spiro[cyclopenta[c]pyrazole-5,2′-[1,3]dioxolane]]
inhibition at 0.1 µM [1, 3]: 28% | inhibition at 0.1 µM [1, 4]: -6% | inhibition at 0.33 µM [2]: 102% | IC50 [2]: 5.9 nM
